Patent publication US20020051978A1, “Methods and compositions for the identification, assessment, prevention and therapy of human cancers” (priority 2000, published 2002)
Where two headings read alike, the source gives them in different places.

Key:
[1] = test system: 60 cancer cell lines (NCI 60 cancer cell line series); conditions: cited from earlier work
[2] = test system: 60 cancer cell lines (NCI 60 cancer cell line series); experiment: NCI-DTP in vitro cancer screen, sulforhodamine B (SRB) growth inhibition, 48 hour exposure; assay type: cell-based, human; design: key to sensitivity class Ovarian OVCAR-8 CL6005 / sensitivity class Ovarian SK-OV-3 CL6011 / sensitivity class Prostate DU-145 CL11003 / sensitivity class NSCLC NCI-H522 CL1003 / sensitivity class Ovarian IGROV1 CL6010 / sensitivity class Ovarian OVCAR-4 CL6002 / sensitivity class Prostate PC-3(I) CL11001 / sensitivity class Renal A498 CL9013 / sensitivity class Renal SN12C CL9008: sensitivity class: 1 = Low, 2 = Medium, 3 = High
Method in brief: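 Values come from the NCI-DTP screen database: -log GI50, the concentration giving 50% growth inhibition, derived from SRB cell-mass dose-response curves. Each line seeded at its own density, treated day 1 at five ten-fold-spaced doses in duplicate wells, stained after 48 h.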

COc1cccc2c1C(=O)c1c(O)c3c(c(O)c1C2=O)C[C@@](O)(C(=O)CO)C[C@@H]3O[C@H]1C[C@H](N)[C@H](O)[C@H](C)O1 [Adriamycin]
-Log (GI50) ([1]; Breast BT-549 (CL5013)): 6.5 | -Log (GI50) ([1]; Breast HS-578T CL5006): 6.7 | -Log (GI50) ([1]; Breast MCF7(I) (CL5001)): 7.8 | -Log (GI50) ([1]; Breast MCF7/ADRr (CL5002)): 4.8 | -Log (GI50) ([1]; Breast MDA-MB-231 CL5005): 6.4 | -Log (GI50) ([1]; Breast MDA-MB-435 (CL5011)): 6.5 | -Log (GI50) ([1]; Breast MDA-N CL5012): 6.5 | -Log (GI50) ([1]; Breast T-47D (CL5014)): 7.0 | -Log (GI50) ([1]; CNS SF-268 CL12014): 7.0 | -Log (GI50) ([1]; CNS SF-295 CL12015): 7.0 | -Log (GI50) ([1]; CNS SF-539 CL12016): 7.2 | -Log (GI50) ([1]; CNS SNB-19 (CL12002)): 7.3 | -Log (GI50) ([1]; CNS SNB-75(I) CL12005): 7.0 | -Log (GI50) ([1]; CNS U251(I) CL12009): 7.3 | -Log (GI50) ([1]; Colon COLO-250 CL4010): 6.7 | -Log (GI50) ([1]; Colon HCC-2998 (CL4002)): 6.7 | -Log (GI50) ([1]; Colon HCT-15 CL4015): 5.9 | -Log (GI50) ([1]; Colon HCT-116 (CL4003)): 7.1 | -Log (GI50) ([1]; Colon HT29(I) CL4001): 6.7 | -Log (GI50) ([1]; Colon KM12 (CL4017)): 6.5 | -Log (GI50) ([1]; Colon SW-620 (CL4009)): 7.1 | -Log (GI50) ([1]; Leukemia CCRF-CEM(I) (CL7003)): 7.5 | -Log (GI50) ([1]; Leukemia HL-60(I) (CL7008)): 7.3 | -Log (GI50) ([1]; Leukemia K562(I) CL7005): 7.0 | -Log (GI50) ([1]; Leukemia MOLT-4 (CL7006)): 8.0 | -Log (GI50) ([1]; Leukemia RPMI-8226(I) (CL7010)): 7.3 | -Log (GI50) ([1]; Leukemia SR CL7019): 7.8 | -Log (GI50) ([1]; Melanoma LOX IMVI CL10001): 7.3 | -Log (GI50) ([1]; Melanoma M14 (CL10014)): 6.6 | -Log (GI50) ([1]; Melanoma MALME-3M CL10002): 7.1 | -Log (GI50) ([1]; NCSLC NCI-H522 CL1003): 7.2 | -Log (GI50) ([1]; NSCLC NCI-H23(I) CL1001): 6.9 | -Log (GI50) ([1]; NSCLC NCI-H332M CL1017): 6.3 | -Log (GI50) ([1]; NSCLC NCI-H460 CL1021): 8.2 | -Log (GI50) ([1]; Ovarian IGROV1 CL6010): 6.9 | -Log (GI50) ([1]; Ovarian OVCAR-3 CL6001): 6.3 | -Log (GI50) ([1]; Ovarian OVCAR-4 CL6002): 6.1 | -Log (GI50) ([1]; Ovarian OVCAR-5 CL6003): 6.2 | -Log (GI50) ([1]; Ovarian OVCAR-8 CL6005): 6.8 | -Log (GI50) ([1]; Ovarian SK-OV-3 CL6011): 6.5 | -Log (GI50) ([1]; Prostate DU-145 CL11003): 6.8 | -Log (GI50) ([1]; Prostate PC-3(I) CL11001): 6.6 | -Log (GI50) ([1]; Renal 786-O CL9018): 7.3 | -Log (GI50) ([1]; Renal A498 CL9013): 6.9 | -Log (GI50) ([1]; Renal ACHN CL9023): 7.2 | -Log (GI50) ([1]; Renal CAKI-1 CL9015): 6.8 | -Log (GI50) ([1]; Renal RXF-393 CL9016): 6.7 | -Log (GI50) ([1]; Renal SN12C CL9008): 7.0 | -Log (GI50) ([1]; Renal TK10 CL9024): 6.3 | -Log (GI50) ([1]; Renal UO-31 CL9004): 6.1 | classification of cell line as Low(1), Medium(2) or High(3) sensitivity to compound ([2]; CNS SF-539 CL12016): 2 | classification of cell line as Low(1), Medium(2) or High(3) sensitivity to compound ([2]; CNS SNB-19 (CL12002)): 2 | classification of cell line as Low(1), Medium(2) or High(3) sensitivity to compound ([2]; CNS SNB-75(I) CL12005): 2 | classification of cell line as Low(1), Medium(2) or High(3) sensitivity to compound ([2]; CNS U251(I) CL12009): 2 | classification of cell line as Low(1), Medium(2) or High(3) sensitivity to compound ([2]; Colon COLO-250 CL4010): 2 | classification of cell line as Low(1), Medium(2) or High(3) sensitivity to compound ([2]; Colon HCC-2998 (CL4002)): 2 | classification of cell line as Low(1), Medium(2) or High(3) sensitivity to compound ([2]; Colon HCT-15 CL4015): 1 | classification of cell line as Low(1), Medium(2) or High(3) sensitivity to compound ([2]; Colon HCT-116 (CL4003)): 2 | classification of cell line as Low(1), Medium(2) or High(3) sensitivity to compound ([2]; Colon HT29(I) CL4001): 2 | classification of cell line as Low(1), Medium(2) or High(3) sensitivity to compound ([2]; Colon KM12 (CL4017)): 2 | classification of cell line as Low(1), Medium(2) or High(3) sensitivity to compound ([2]; Colon SW-620 (CL4009)): 2 | classification of cell line as Low(1), Medium(2) or High(3) sensitivity to compound ([2]; Leukemia CCRF-CEM(I) (CL7003)): 3 | classification of cell line as Low(1), Medium(2) or High(3) sensitivity to compound ([2]; Leukemia HL-60(I) (CL7008)): 2 | classification of cell line as Low(1), Medium(2) or High(3) sensitivity to compound ([2]; Leukemia K562(I) CL7005): 2 | classification of cell line as Low(1), Medium(2) or High(3) sensitivity to compound ([2]; Leukemia MOLT-4 (CL7006)): 3 | classification of cell line as Low(1), Medium(2) or High(3) sensitivity to compound ([2]; Leukemia RPMI-8226(I) (CL7010)): 2 | classification of cell line as Low(1), Medium(2) or High(3) sensitivity to compound ([2]; Leukemia SR CL7019): 3 | classification of cell line as Low(1), Medium(2) or High(3) sensitivity to compound ([2]; Melanoma LOX IMVI CL10001): 2 | classification of cell line as Low(1), Medium(2) or High(3) sensitivity to compound ([2]; Melanoma M14 (CL10014)): 2 | classification of cell line as Low(1), Medium(2) or High(3) sensitivity to compound ([2]; Melanoma MALME-3M CL10002): 2 | sensitivity class NSCLC NCI-H23(I) CL1001 ([2]; cell line NSCLC NCI-H23(I), CL1001): 2 | sensitivity class NSCLC NCI-H332M CL1017 ([2]; cell line NSCLC NCI-H332M, CL1017): 1 | sensitivity class NSCLC NCI-H460 CL1021 ([2]; cell line NSCLC NCI-H460, CL1021): 3 | sensitivity class NSCLC NCI-H522 CL1003 ([2]; cell line NSCLC NCI-H522, CL1003): 2 | sensitivity class Ovarian IGROV1 CL6010 ([2]; cell line Ovarian IGROV1, CL6010): 2 | sensitivity class Ovarian OVCAR-3 CL6001 ([2]; cell line Ovarian OVCAR-3, CL6001): 2 | sensitivity class Ovarian OVCAR-4 CL6002 ([2]; cell line Ovarian OVCAR-4, CL6002): 1 | sensitivity class Ovarian OVCAR-5 CL6003 ([2]; cell line Ovarian OVCAR-5, CL6003): 1 | sensitivity class Ovarian OVCAR-8 CL6005 ([2]; cell line Ovarian OVCAR-8, CL6005): 2 | sensitivity class Ovarian SK-OV-3 CL6011 ([2]; cell line Ovarian SK-OV-3, CL6011): 2 | sensitivity class Prostate DU-145 CL11003 ([2]; cell line Prostate DU-145, CL11003): 2 | sensitivity class Prostate PC-3(I) CL11001 ([2]; cell line Prostate PC-3(I), CL11001): 2 | sensitivity class Renal 786-O CL9018 ([2]; cell line Renal 786-O, CL9018): 2 | sensitivity class Renal A498 CL9013 ([2]; cell line Renal A498, CL9013): 2 | sensitivity class Renal ACHN CL9023 ([2]; cell line Renal ACHN, CL9023): 2 | sensitivity class Renal CAKI-1 CL9015 ([2]; cell line Renal CAKI-1, CL9015): 2 | sensitivity class Renal RXF-393 CL9016 ([2]; cell line Renal RXF-393, CL9016): 2 | sensitivity class Renal SN12C CL9008 ([2]; cell line Renal SN12C, CL9008): 2 | sensitivity class Renal TK10 CL9024 ([2]; cell line Renal TK10, CL9024): 2 | sensitivity class Renal UO-31 CL9004 ([2]; cell line Renal UO-31, CL9004): 1
